pIC50: −log10 of the molar value.

For data set [1], the system named is MCF7. The data set is described as follows: Cytotoxicity against MCF-7 breast carcinoma cells at 10 ug/mL. In kind it is functional, cell-based. The conditions noted are these: Homo sapiens.
Data set [2] deals with Multidrug resistance-associated protein 1 (Homo sapiens, UniProt P33527). The data set is described as follows: The MRP1 antagonism score is the percentage of MCF-7/VP cells surviving in the absence of vincristine to that of in the presence of vincristine. In kind it is functional.
Multidrug resistance-associated protein 1, sequence (P33527 whole entry): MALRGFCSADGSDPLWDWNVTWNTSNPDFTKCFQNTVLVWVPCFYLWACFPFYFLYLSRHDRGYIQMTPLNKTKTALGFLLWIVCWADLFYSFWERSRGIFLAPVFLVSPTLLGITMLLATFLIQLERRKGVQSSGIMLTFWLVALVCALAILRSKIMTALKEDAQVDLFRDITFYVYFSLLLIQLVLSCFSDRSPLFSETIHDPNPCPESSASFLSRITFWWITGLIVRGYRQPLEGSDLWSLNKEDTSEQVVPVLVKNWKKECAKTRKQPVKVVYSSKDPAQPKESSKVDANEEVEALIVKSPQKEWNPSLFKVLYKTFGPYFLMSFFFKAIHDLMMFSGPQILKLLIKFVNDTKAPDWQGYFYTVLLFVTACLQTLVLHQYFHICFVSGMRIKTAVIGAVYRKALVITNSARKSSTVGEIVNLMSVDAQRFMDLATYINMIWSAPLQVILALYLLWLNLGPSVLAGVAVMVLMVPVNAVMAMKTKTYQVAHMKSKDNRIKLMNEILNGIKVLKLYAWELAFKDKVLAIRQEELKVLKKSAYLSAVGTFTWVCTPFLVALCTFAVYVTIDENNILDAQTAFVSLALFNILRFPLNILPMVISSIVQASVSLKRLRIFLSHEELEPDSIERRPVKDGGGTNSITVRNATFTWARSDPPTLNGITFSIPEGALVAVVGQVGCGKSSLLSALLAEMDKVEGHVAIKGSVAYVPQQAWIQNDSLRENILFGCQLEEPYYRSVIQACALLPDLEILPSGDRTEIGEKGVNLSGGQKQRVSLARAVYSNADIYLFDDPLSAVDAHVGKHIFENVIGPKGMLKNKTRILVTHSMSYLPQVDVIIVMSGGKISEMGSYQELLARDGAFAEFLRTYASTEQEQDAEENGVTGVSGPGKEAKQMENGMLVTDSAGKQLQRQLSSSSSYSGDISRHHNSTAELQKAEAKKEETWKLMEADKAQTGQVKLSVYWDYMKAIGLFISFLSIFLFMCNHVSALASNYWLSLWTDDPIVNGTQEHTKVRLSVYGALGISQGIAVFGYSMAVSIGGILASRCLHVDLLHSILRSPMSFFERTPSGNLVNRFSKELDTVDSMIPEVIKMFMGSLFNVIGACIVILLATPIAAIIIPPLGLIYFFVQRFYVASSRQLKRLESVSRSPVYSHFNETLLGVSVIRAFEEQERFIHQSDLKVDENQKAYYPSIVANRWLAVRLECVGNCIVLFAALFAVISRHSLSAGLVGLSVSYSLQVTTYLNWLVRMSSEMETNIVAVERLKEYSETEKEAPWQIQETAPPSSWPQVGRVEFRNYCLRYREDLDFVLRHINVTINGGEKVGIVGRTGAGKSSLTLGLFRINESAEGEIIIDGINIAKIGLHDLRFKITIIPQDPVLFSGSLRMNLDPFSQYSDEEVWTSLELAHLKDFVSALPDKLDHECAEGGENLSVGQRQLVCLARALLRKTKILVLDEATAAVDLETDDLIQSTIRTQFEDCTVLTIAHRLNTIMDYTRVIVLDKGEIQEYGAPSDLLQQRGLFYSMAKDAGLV
The subject of data set [3] is MCF7. In kind it is functional, Homo sapiens.

`Cn1c(=O)c(COc2ccccc2)nc2ccccc21`: the negative-log IC50 (pIC50) – broadly, the negative decadic logarithm of the IC50, by convention in mol/L – with MCF7 [1] is less than 4.03. In addition, the Ratio in data set [2] came to 1.

The compound `Cn1c(=O)c(Cc2ccccc2)nc2ccccc21` showed a pIC50 in the data set with MCF7 [1] of less than 4.00. In data set [2], the Ratio was determined as 1.1. Regarding `CNc1ccccc1-c1nc2cc([N+](=O)[O-])ccc2n(C)c1=O`, the Toxicity with MCF7 [3] came out at 7%. The Ratio in data set [2] came to 1.1. As to `Cc1nc2ccccc2nc1O`, in the data set on MCF7 [1], the negative logarithm of the IC50 (pIC50) was less than 3.81. For the same compound, in data set [2], the Ratio is reported as 1.1.

Consider `CNc1ccc(OC)cc1-c1nc2ccccc2n(C)c1=O`, for which, in the data set on MCF7 [3], the Toxicity came out at 7%. Also, the Ratio in data set [2] is on record as 3.5. In turn, `Cn1c(=O)c(COc2c(F)c(F)c(F)c(F)c2F)nc2ccccc21` showed a pIC50 in the data set on MCF7 [1] of less than 4.15. Further, in data set [2], the Ratio is 0.8. Consider `Cc1nc2ccccc2n(C)c1=O`, for which the negative logarithm of the IC50 (pIC50) in the data set with MCF7 [1] is less than 3.84. In addition, the Ratio in data set [2] turned out to be 0.7. Taken in the same sequence, the figures for `Cn1c(=O)c(COc2ccc(C(=O)c3ccccc3)cc2)nc2ccccc21` were less than 4.17 and 0.9.

With `Cn1c(=O)c(COc2ccccc2C(=O)Nc2ccccc2)nc2ccccc21`, the pIC50 in the data set on MCF7 [1] was less than 4.49. The Ratio in data set [2] amounted to 1.

In the data set with MCF7 [1], `Oc1nc2ccccc2nc1Cc1ccccc1` gave a negative-log IC50 (pIC50) of less than 3.97. Besides, the Ratio in data set [2] amounted to 1. The matching figures for `Cn1c(=O)c(COc2cccc(Nc3ccccc3)c2)nc2ccccc21`: 4.60 and 0.9. Take `Cn1c(=O)c(COc2ccc(F)cc2)nc2ccccc21`: the pIC50 in the data set with MCF7 [1] was 4.59. In addition, the Ratio in data set [2] came to 0.8. `Nc1ccc(Br)cc1-c1nc2cc3ccccc3cc2nc1O` returned a Toxicity in the data set on MCF7 [3] of 49%. Further, in data set [2], the Ratio worked out at 1.3. With `COC(=O)c1ccc(OCc2nc3ccccc3n(C)c2=O)c(OC)c1`, the negative logarithm of the IC50 (pIC50) with MCF7 [1] is 4.15. For the same compound, in data set [2], the Ratio stood at 1.1. Taken in the same sequence, the figures for `Cn1c(=O)c(COc2cccc3ccccc23)nc2ccccc21` were 4.70 and 0.9. `CNc1ccc(OC)cc1-c1nc2cc3ccccc3cc2nc1O` had a Toxicity in the data set on MCF7 [3] of 25%. The Ratio in data set [2] was 1.

`COc1ccc(CCN(C)CCCC(C#N)(c2ccc(OC)c(OC)c2)C(C)C)cc1OC` (stereo not drawn) gave a negative logarithm of the IC50 (pIC50) in the data set on MCF7 [1] of less than 4.29. As for `Cn1c(=O)c(COc2ccc(C#N)cc2)nc2ccccc21`, the pIC50 with MCF7 [1] is less than 4.37. Besides, in data set [2], the Ratio stood at 0.8. The matching figures for `Cc1cc(OCc2nc3ccccc3n(C)c2=O)ccc1[N+](=O)[O-]`: less than 4.11 and 1.1. Taken in the same sequence, the figures for `CN(C)c1cccc(OCc2nc3ccccc3n(C)c2=O)c1` were 4.24 and 0.9. As to `Nc1ccccc1-c1nc2cc3ccccc3cc2nc1O`, in the data set on MCF7 [3], the Toxicity was determined as 37%. Besides, the Ratio in data set [2] was determined as 1.3. As to `CCOC(=O)c1ccc(OCc2nc3ccccc3n(C)c2=O)cc1`, the negative-log IC50 (pIC50) in the data set with MCF7 [1] was less than 4.13. Further, in data set [2], the Ratio is on record as 0.9. The matching figures for `Cn1c(=O)c(COc2ccccc2Cc2ccccc2)nc2ccccc21`: 5.09 and 1.1. Taken in the same sequence, the figures for `Cn1c(=O)c(COc2cccnc2)nc2ccccc21` were less than 4.25 and 1.1. Taken in the same sequence, the figures for `Cn1c(=O)c(COc2ccc(-c3ccccc3)cc2)nc2ccccc21` were 4.52 and 0.7. Turning to `CNc1ccc(OC)cc1-c1nc2cc3ccccc3cc2n(C)c1=O`, in the data set on MCF7 [3], the Toxicity came out at 3%. Moreover, in data set [2], the Ratio was 2.1. Taken in the same sequence, the figures for `Nc1ccccc1-c1nc2ccccc2nc1O` were 22% and 1.1.
